According to patent US10501425B2, “Microbiocidal oxadiazole derivatives” (SYNGENTA PARTICIPATIONS AG, priority 2015, dated 2019):
Several values for one entry are separate records, joined by “and”; a condition that tells them apart may be missing. Equal entries are not always repeated.

How the values were obtained:
[1] = tested on: Puccinia recondita f. Sp. Tritici; experiment: Puccinia recondita f. sp. tritici / wheat / leaf disc preventative (brown rust); type: in vivo; details: foliar, 200 ppm in the applied formulation, wheat leaf segments cv. Kanzler, preventative (inoculated 1 day after application), compared to untreated, read-out: disease control
Method in brief: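 Single evaluation 7–9 d after spraying: % disease control compared with untreated leaf segments. Protocol: cv. Kanzler segments, preventative spray at 200 ppm, spore inoculation at day 1, 19° C., 75% rh, 12 h light/12 h dark.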

[2] = tested on: Puccinia recondita f. Sp. Tritici; experiment: Puccinia recondita f. sp. tritici / wheat / leaf disc curative (brown rust); type: in vivo; details: foliar, 24 h, 200 ppm in the applied formulation, wheat leaf segments cv. Kanzler, curative (applied 1 day after inoculation), compared to untreated, read-out: disease control
Method in brief: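 Read-out is percent disease control relative to untreated segments, assessed 6 to 8 days after treatment once check disease is adequate. Kanzler wheat leaf segments on agar receive fungal spores, then test compound (DMSO stock diluted in 0.025% Tween20 or water) 1 day later, under 19° C and 75% relative humidity.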

[3] = tested on: Glomerella lacenarium (Colletotrichum lagenarium); experiment: Glomerella lagenarium liquid culture / cucumber / preventative (anthracnose); type: cell-based; details: Colletotrichum orbiculare; 20 ppm in the applied formulation; liquid culture (PDB), growth inhibition measured photometrically 3 to 4 days after application; compared to untreated; read-out: disease control
Method in brief: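 Conidia from cryogenic storage were mixed into potato dextrose broth. This was added to compound diluted from DMSO into 0.025% Tween20, tested at 20 ppm. Plates were incubated in the dark at 24 °C and 96% relative humidity, and growth was read photometrically after 2–7 days as % activity versus untreated check.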

Phakopsora pachyrhizi = Phakopsora pachyrhizi / soybean / leaf disc preventative (Asian soybean rust); type: in vivo; details: foliar, 200 ppm in the applied formulation, soybean leaf disks, compared to untreated, read-out: disease control
Method in brief: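 Read-out is percent disease control relative to untreated check discs, assessed once untreated discs show adequate disease, 12 to 14 days after application. Compounds, tested at 200 ppm in the applied formulation, are sprayed onto soybean leaf discs one day before inoculation with a spore suspension.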

melting point | SMILES | pest or weed control at 200 ppm [1] [%] | pest or weed control at 200 ppm [2] [%] | inhibition of growth at 20 ppm [3] [%] | pest or weed control at 200 ppm (Phakopsora pachyrhizi) [%]
127 to 128 °C | COCC(=O)NCc1ccc(-c2noc(C(F)(F)F)n2)cc1 [Compound 1.25, 2-methoxy-N-[[4-[5-(trifluoromethyl)-1,2,4-oxadiazol-3-yl]phenyl]methyl]acetamide] | ≥ 80 | ≥ 80 | ≥ 80 | ≥ 80
99 to 110 °C | CCC(=O)NCc1ccc(-c2noc(C(F)(F)F)n2)cc1F [Compound 1.26, N-[[2-fluoro-4-[5-(trifluoromethyl)-1,2,4-oxadiazol-3-yl]phenyl]methyl]propanamide] | ≥ 80 | ≥ 80 | ≥ 80 | ≥ 80
107 to 112 °C | O=C(CO)NCc1ccc(-c2noc(C(F)(F)F)n2)cc1 [Compound 1.27, 2-hydroxy-N-[[4-[5-(trifluoromethyl)-1,2,4-oxadiazol-3-yl]phenyl]methyl]acetamide] | ≥ 80 | ≥ 80 | ≥ 80 | –
90 to 94 °C | CC(O)C(=O)NCc1ccc(-c2noc(C(F)(F)F)n2)cc1 (centres unmarked) [Compound 1.28, 2-hydroxy-N-[[4-[5-(trifluoromethyl)-1,2,4-oxadiazol-3-yl]phenyl]methyl]propanamide] | ≥ 80 | ≥ 80 | ≥ 80 | ≥ 80
133.6 to 135 °C and 133 to 145 °C | CCC(=O)NCCc1ccc(-c2noc(C(F)(F)F)n2)cc1 [Compound 1.29, N-[2-[4-[5-(trifluoromethyl)-1,2,4-oxadiazol-3-yl]phenyl]ethyl]propanamide] | ≥ 80 | ≥ 80 | ≥ 80 | ≥ 80
126 to 130 °C | CCC(=O)NCc1ccc(-c2noc(C(F)(F)F)n2)cc1Cl [Compound 1.32, N-[[2-chloro-4-[5-(trifluoromethyl)-1,2,4-oxadiazol-3-yl]phenyl]methyl]propanamide] | ≥ 80 | – | ≥ 80 | ≥ 80
66 to 70 °C | CC(OC(F)F)C(=O)NCc1ccc(-c2noc(C(F)(F)F)n2)cc1 (centres unmarked) [Compound 1.33, 2-(difluoromethoxy)-N-[[4-[5-(trifluoromethyl)-1,2,4-oxadiazol-3-yl]phenyl]methyl]propanamide] | ≥ 80 | ≥ 80 | ≥ 80 | ≥ 80
108 to 110 °C | CCC(=O)NCc1ccc(-c2noc(C(F)(F)F)n2)c(F)c1 [Compound 1.34, N-[[3-fluoro-4-[5-(trifluoromethyl)-1,2,4-oxadiazol-3-yl]phenyl]methyl]propanamide] | ≥ 80 | ≥ 80 | ≥ 80 | ≥ 80
112 to 118 °C | CCC(=O)NCc1ccc(-c2noc(C(F)(F)F)n2)c(F)c1F [Compound 1.54, N-[[2,3-difluoro-4-[5-(trifluoromethyl)-1,2,4-oxadiazol-3-yl]phenyl]methyl]propanamide] | ≥ 80 | ≥ 80 | ≥ 80 | ≥ 80
142 to 146 °C | CCC(=O)NC(C)(C)c1ccc(-c2noc(C(F)(F)F)n2)cc1 [Compound 1.93, N-[1-methyl-1-[4-[5-(trifluoromethyl)-1,2,4-oxadiazol-3-yl]phenyl]ethyl]propanamide] | ≥ 80 | ≥ 80 | ≥ 80 | ≥ 80
94 to 103 °C | COCCC(=O)NC(C)(C)c1ccc(-c2noc(C(F)(F)F)n2)cc1 [Compound 1.94, 3-methoxy-N-[1-methyl-1-[4-[5-(trifluoromethyl)-1,2,4-oxadiazol-3-yl]phenyl]ethyl]propanamide] | ≥ 80 | ≥ 80 | ≥ 80 | ≥ 80
95 to 99 °C | COCC(=O)NC1(c2ccc(-c3noc(C(F)(F)F)n3)cc2)CC1 [Compound 1.96, 2-methoxy-N-[1-[4-[5-(trifluoromethyl)-1,2,4-oxadiazol-3-yl]phenyl]cyclopropyl]acetamide] | ≥ 80 | ≥ 80 | ≥ 80 | ≥ 80
113 to 118 °C | COCCC(=O)NC1(c2ccc(-c3noc(C(F)(F)F)n3)cc2)CC1 [Compound 1.98, 3-methoxy-N-[1-[4-[5-(trifluoromethyl)-1,2,4-oxadiazol-3-yl]phenyl]cyclopropyl]propanamide] | ≥ 80 | ≥ 80 | ≥ 80 | –
95 to 98 °C | CC(C)(O)C(=O)NCc1ccc(-c2noc(C(F)(F)F)n2)cc1 [Compound 1.104, 2-hydroxy-2-methyl-N-[[4-[5-(trifluoromethyl)-1,2,4-oxadiazol-3-yl]phenyl]methyl]propanamide] | ≥ 80 | ≥ 80 | ≥ 80 | –
99 to 103 °C | COC(C)C(=O)NCc1ccc(-c2noc(C(F)(F)F)n2)nc1 (centres unmarked) [Compound 1.105, 2-methoxy-N-[[6-[5-(trifluoromethyl)-1,2,4-oxadiazol-3-yl]-3-pyridyl]methyl]propanamide] | ≥ 80 | ≥ 80 | ≥ 80 | –
151 to 153 °C | CC(C)C(=O)NCc1ccc(-c2noc(C(F)(F)F)n2)nc1 [Compound 1.106, 2-methyl-N-[[6-[5-(trifluoromethyl)-1,2,4-oxadiazol-3-yl]-3-pyridyl]methyl]propanamide] | ≥ 80 | ≥ 80 | – | –
81 to 83 °C and 81 to 83.1 °C | CC(C)(C)OC(=O)NCCc1ccc(-c2noc(C(F)(F)F)n2)cc1 [Compound 2.1, tert-butyl N-[2-[4-[5-(trifluoromethyl)-1,2,4-oxadiazol-3-yl]phenyl]ethyl]carbamate] | ≥ 80 | ≥ 80 | ≥ 80 | –
60 to 66 °C | CCOCCOC(=O)NCc1ccc(-c2noc(C(F)(F)F)n2)cc1C(F)(F)F [Compound 2.2, 2-ethoxyethyl N-[[2-(trifluoromethyl)-4-[5-(trifluoromethyl)-1,2,4-oxadiazol-3-yl]phenyl]methyl]carbamate] | – | – | ≥ 80 | –
174.1 to 176.4 °C | CCCNC(=O)NCc1ccc(-c2noc(C(F)(F)F)n2)cc1 [Compound 3.6, 1-propyl-3-[[4-[5-(trifluoromethyl)-1,2,4-oxadiazol-3-yl]phenyl]methyl]urea] | ≥ 80 | – | ≥ 80 | ≥ 80
